target: T1, mouse Nurr1 full-length (Mus musculus, UniProt Q06219); experiment: Luciferase reporter gene assay for Nurr1 transcriptional activity in SK-N-BE2C cells; assay type: cell-based; settings: relative activity over control (luminescence value; 1.0)
T1 construct: pcDNA3.1 Myc/His mouse Nurr1 full-length construct; expressed in transfected cells; host or cells: SK-N-BE2C
Protocol: To investigate whether the PG analogs of the present invention activate Nurr1 function, the inventors of the present invention employed an reporter gene assay and examined the transcriptional activation as described in Kim, C.-H. et al., Proceedings of the National Academy of Sciences 112, 8756-8761, doi:10.1073/pnas.1509742112 (2015).
The gene assay was performed by Luciferase assay as described below:
[Protocol for Luciferase Assay to Determine Nurr1 Transcriptional Activity] • 1. SK-N-BE2C cells were maintained in HyClone™ DMEM High Glucose (Cat. No.: SH30022.01) with 10% (v/v) fetal bovine serum (FBS), 100 units/ml penicillin and 100 μg/ml streptomycin. • 2. Seed 1.5×10^5 SK-N-BE2C cells/well into a 24-well plate and incubate at 37° C. with 5% CO2 for 24 hours. • 3. After 24 hours, transfect cells with pcDNA3.1 Myc/His mouse Nurr1 full-length construct, firefly luciferase reporter vector (pGL-3 basic from Promega, Cat. No.:E1751; with appropriate response element cloned in) and Renilla luciferase control vector (pRL-null from Promega, Cat. No.:E2271) in the ratio of 8:1:1 (Nurr1: firefly: renilla) or 400 ng, 50 ng and 50 ng respectively, amounting to a total of 500 ng in the 50 μl transfection mix for 1 well. • 4. To make the transfection mix, first prepare the DNA with P3000 reagent by adding the appropriate amount of DNA with 1 μl P3000 reagent and top up with Opti-MEM® I Reduced-Serum Media (from ThermoFisher Scientific [Cat. No.: 31985070]) to 25 μl. Incubate for 5 minutes at room temperature. • 5. Make another mix consisting of 1 μl Lipofectamine 3000 reagent with 24 μl Opti-MEM® I Reduced-Serum Media per well. Add this Lipofectamine mix to the previous DNA-P3000 mix (after the previous 5 minute incubation) and incubate them for 15 minutes at room temperature. [P3000:Lipofectamine=1:1]. • 6. In the meantime, change the media in the sample wells with fresh DMEM media without antibiotics. • 7. After 15 minutes incubation, add the 50 μl transfection mix into each well and incubate the plate for 24 hours at 37° C. with 5% CO2. • 8. After 24 hours, change the media to normal DMEM media with antibiotics and add various doses of compounds into designated wells and incubate the plate for another 24 hours at 37° C. with 5% CO2. • 9. Following the 24-hour incubation period, luciferase assay can be conducted using Dual-Glo Luciferase® kit from Promega (Cat. No.: E2920). • 10. Lyse each tested wells for 15 minutes with 75 μl of passive lysis buffer provided in the Dual-Luciferase® kit from Promega (Cat. No.: E1910). [Alternatively, add 75 μl of PBS and 75 μl of Dual-Glo® Luciferase Reagent and incubate for 10 minutes at room temperature (cover the plate with foil to protect from light). Transfer the entire sample in each well to a Greiner CELLSTAR® 96-well white polystyrene plate then proceed to step 13]. • 11. After 15 minutes, transfer each lysed sample to a Greiner CELLSTAR® 96-well white polystyrene plate (Cat. No.:655083). • 12. To each well of lysed cells, add 75 μl of Dual-Glo® Luciferase Reagent and incubate for 10 minutes at room temperature (cover the plate with foil to protect from light). • 13. Set the measurement with a 10-second integrated measurement period. • 14. Add 75 μl of Dual-Glo® Stop & Glo® reagent into each well and incubate for 10 minutes before commencing with the same parameters as before to determine the RLU for the Renilla luciferase. • 15. The averaged reading for wells corresponding to non-transfected cells can be subtracted from each RLU reading and duplicate/triplicate readings can then be averaged. Normalization of the luminescence reading for each well can be carried out by dividing the firefly luciferase RLU with the corresponding Renilla luciferase RLU. Each drug-treated well can then be normalized against the averaged DMSO-treated well reading.

T1 sequence (Q06219 whole entry): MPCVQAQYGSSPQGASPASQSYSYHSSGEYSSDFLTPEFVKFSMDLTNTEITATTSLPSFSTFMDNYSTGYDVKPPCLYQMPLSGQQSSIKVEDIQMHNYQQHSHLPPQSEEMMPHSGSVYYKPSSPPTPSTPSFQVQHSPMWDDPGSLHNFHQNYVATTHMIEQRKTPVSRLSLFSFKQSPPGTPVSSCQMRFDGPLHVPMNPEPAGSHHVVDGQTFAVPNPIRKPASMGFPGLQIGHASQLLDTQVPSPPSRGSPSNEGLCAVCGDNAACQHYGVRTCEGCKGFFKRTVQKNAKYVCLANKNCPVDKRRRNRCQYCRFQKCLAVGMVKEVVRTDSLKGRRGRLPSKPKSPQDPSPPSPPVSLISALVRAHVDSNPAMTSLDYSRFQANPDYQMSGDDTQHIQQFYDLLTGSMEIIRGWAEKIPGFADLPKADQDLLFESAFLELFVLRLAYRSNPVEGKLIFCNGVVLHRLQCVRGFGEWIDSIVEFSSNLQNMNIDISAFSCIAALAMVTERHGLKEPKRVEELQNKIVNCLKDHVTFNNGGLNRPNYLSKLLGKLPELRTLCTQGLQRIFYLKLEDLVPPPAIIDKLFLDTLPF

SMILES	Fold activity (1 uM)
CCCCC(C)(C)[C@@H](O)/C=C/[C@H]1[C@H](O)CC(=O)[C@@H]1CCCCCCC(=O)O [Compound 51, 16,16-dimethyl Prostaglandin E1]	A (above 2.0 (high activity))
CCCCCC(=O)/C=C/[C@H]1C(O)CC(=O)[C@H]1C/C=C\CCCC(=O)O (stereo partly shown) [Compound 82, 8-iso-15-keto Prostaglandin E2]	B (1.1~2.0 (moderate))
CCCCC(C)(C)[C@H](O)/C=C/[C@H]1[C@H](O)CC(=O)[C@@H]1CC(=O)CCCCC(=O)O [Compound 84, 16,16-dimethyl-6-keto Prostaglandin E1]	B (1.1~2.0 (moderate))
CCCCCC(=O)/C=C/[C@H]1[C@H](O)CC(=O)[C@@H]1CCCCCCC(=O)O [Compound 19, 15-keto Prostaglandin E1]	B (1.1~2.0 (moderate))
CCCC1([C@H](O)C/C=C/[C@H]2[C@H](O)CC(=O)[C@@H]2C/C=C\CCCC(=O)O)CCC1 [Compound 43, CAY10408]	B (1.1~2.0 (moderate))
O=C(O)CCC/C=C\C[C@H]1C(=O)C[C@@H](O)[C@@H]1/C=C/[C@@H](O)CCc1ccccc1 [Compound 38, 17-phenyl trinor Prostaglandin E2]	B (1.1~2.0 (moderate))
CCCCC[C@@H](O)/C=C/[C@H]1[C@H](O)CC(=O)[C@@H]1CCCCCCC(=O)O [Compound 87, 15(R)-PGE1]	C (below 1.0 (low activity))
CCCCC[C@H](O)/C=C/[C@H]1[C@H](O)CC(=O)[C@@H]1C/C=C\CCCC(=O)OCC(O)CO (stereo partly shown) [Compound 24, Prostaglandin E2-1-glyceryl ester]	A (above 2.0 (high activity))
CCCCC[C@H](O)/C=C/[C@H]1C(=O)C[C@H](O)[C@@H]1C/C=C\CCCC(=O)OC [Compound 55, Prostaglandin D2 methyl ester]	C (below 1.0 (low activity))
CCCCC[C@H](O)CC[C@H]1[C@H](O)CC(=O)[C@@H]1CCCCCCC(=O)O [Compound 58, 13,14-dihydro Prostaglandin E1]	A (above 2.0 (high activity))
CCCCC[C@H](O)/C=C/[C@H]1[C@H](O)CC(=O)[C@@H]1CCCCCCC(=O)Nc1ccc(Cl)cc1 [Compound 5, N-(4-chlorophenyl)-7-((1R,2R,3R)-3-hydroxy-2-((S,E)-3-hydroxyoct-1-enyl)-5-oxocyclopentyl)heptanamide]	A (above 2.0 (high activity))
CNC(=O)CCC/C=C\C[C@@H]1[C@@H](/C=C/[C@@H](O)CCc2ccccc2)[C@H](O)C[C@@H]1O [Compound 80, 17-phenyl trinor PGF2a methyl amide]	C (below 1.0 (low activity))
O=C(O)CCCCCC[C@H]1C(=O)C[C@@H](O)[C@@H]1/C=C/[C@@H](O)Cc1ccccc1 [Compound 59, 16-phenyl tetranor Prostaglandin E1]	B (1.1~2.0 (moderate))
CCCC[C@H](C)C[C@H](O)/C=C/[C@H]1[C@H](O)CC(=O)[C@@H]1CCCC/C=C/C(=O)O [Compound 67, Limaprost]	A (above 2.0 (high activity))
CCCCC[C@H](O)/C=C/[C@H]1C(=O)C[C@H](O)[C@@H]1CCCCCCC(=O)O [Compound 48, Prostaglandin D1]	C (below 1.0 (low activity))
CC/C=C\C[C@H](O)/C=C/[C@H]1[C@H](O)CC(=O)[C@@H]1C/C=C\CCCC(=O)O [Compound 70, Prostaglandin E3]	A (above 2.0 (high activity))

SMILES	Fold activity (1 uM)
CCCCC[C@](C)(O)/C=C/[C@@H]1[C@@H](C/C=C\CCCC(=O)O)[C@@H](O)C[C@H]1O [Compound 86, Carboprost]	C (below 1.0 (low activity))
CCCCC[C@H](O)/C=C/[C@H]1[C@H](O)CC(=O)[C@@H]1CCCCCCC(=O)Nc1ccc(NC(=O)c2ccccc2)cc1 [Compound 3, N-(4-(7-((1R,2R,3R)-3-hydroxy-2-((S,E)-3-hydroxyoct-1-en-1-yl)-5-oxocyclopentyl)heptanamido)phenyl)benzamide]	B (1.1~2.0 (moderate))
CCCCC[C@@H](O)/C=C/[C@H]1[C@H](C/C=C\CCCC(=O)O)C(=O)C[C@@H]1O [Compound 47, ent-Prostaglandin E2]	B (1.1~2.0 (moderate))
CCCCCC(=O)/C=C/[C@H]1[C@H](O)CC(=O)[C@@H]1C/C=C\CCCC(=O)O [Compound 45, 15-keto Prostaglandin E2]	B (1.1~2.0 (moderate))
CCCCC[C@H](O)/C=C/[C@H]1[C@H](O)CC(=O)[C@@H]1CCCCCCC(=O)Oc1ccc(NC(=O)c2ccccc2)cc1 [Compound 1, 4-Benzamidophenyl-7-((1R,2R,3R)-3-hydroxy-2-((S,E)-3-hydroxyoct-1-enyl)-5-oxocyclopentyl)heptanoate]	A (above 2.0 (high activity))
CCCCC[C@H](O)/C=C/[C@H]1[C@H](O)CC(=O)[C@H]1C/C=C\CCCC(=O)OC(C)C [Compound 76, 8-iso Prostaglandin E2 isopropyl ester]	A (above 2.0 (high activity))
CCCCC[C@H](O)/C=C/[C@H]1[C@H](O)CC(=O)[C@@H]1CCCCCCC(=O)Oc1ccc(NC(=O)c2cc(F)cc(F)c2)cc1 [Compound 13, 4-(3,5-difluorobenzamido)phenyl 7-((1R,2R,3R)-3-hydroxy-2-((S,E)-3-hydroxyoct-1-enyl)-5-oxocyclopentyl)heptanoate]	A (above 2.0 (high activity))
CCCC[C@H](C)C[C@H](O)/C=C/[C@H]1[C@H](O)CC(=O)[C@@H]1CCCCC(CC(=O)O)OC (stereo partly shown) [Compound 63, 3-methoxy Limaprost]	B (1.1~2.0 (moderate))
CCCCC[C@H](O)/C=C/[C@@H]1[C@@H](C/C=C\CCCC(=O)O)[C@@H](O)C[C@H]1O.NC(CO)(CO)CO [Compound 92, DinoprostTromethanol]	B (1.1~2.0 (moderate))
O=C(CCC/C=C\C[C@@H]1[C@@H](CC[C@@H](O)CCc2ccccc2)[C@H](O)C[C@@H]1O)OCCCCO[N+](=O)[O-] [Compound 95, Latanoprostene bunod]	C (below 1.0 (low activity))
CCCCC[C@H](O)/C=C/[C@H]1[C@H](O)CC(=O)[C@@H]1C/C=C\CCCC(=O)NCCCCCNC(=O)CCCC[C@H]1SC[C@@H]2NC(=O)N[C@@H]21 [Compound 39, Prostaglandin E2-biotin]	B (1.1~2.0 (moderate))
O=C(O)CCC/C=C\CC1C(=O)CC(O)C1/C=C/C(O)CC1CCCCC1 (stereo not shown) [Compound 71, 8-iso-16-cyclohexyl-tetranor Prostaglandin E2]	B (1.1~2.0 (moderate))
CCCCC(C)(O)C/C=C/[C@H]1[C@H](O)CC(=O)[C@@H]1CCCCCCC(=O)OC (stereo partly shown) [Compound 75, Misoprostol]	A (above 2.0 (high activity))
CCCCC[C@H](O)/C=C/[C@H]1[C@H](O)CC(=O)[C@@H]1CCCCCCC(=O)NCCO [Compound 18, Prostaglandin E1 Ethanolamide]	A (above 2.0 (high activity))
CCCCCC(=O)CC[C@H]1C(=O)C[C@H](O)[C@@H]1C/C=C\CCCC(=O)O [Compound 33, 13,14-dihydro-15-keto Prostaglandin D2]	B (1.1~2.0 (moderate))
